Reference: US20250353859A1, “COMPOUNDS AS CCR6 INHIBITORS” (Hoffmann-La Roche Inc., priority 2023, published 2025)

Experiments:
human CCR6 [1] = target: T1, human CCR6 (Homo sapiens, UniProt P51684); assay: CHO-K1 CCR6 chemotaxis assay towards CCL20; type: cell-based; conditions: CHO-K1 cells overexpressing human CCR6; 100 ng/ml CCL20, 4 h; relative Log IC50
T1 sequence (P51684 1-374): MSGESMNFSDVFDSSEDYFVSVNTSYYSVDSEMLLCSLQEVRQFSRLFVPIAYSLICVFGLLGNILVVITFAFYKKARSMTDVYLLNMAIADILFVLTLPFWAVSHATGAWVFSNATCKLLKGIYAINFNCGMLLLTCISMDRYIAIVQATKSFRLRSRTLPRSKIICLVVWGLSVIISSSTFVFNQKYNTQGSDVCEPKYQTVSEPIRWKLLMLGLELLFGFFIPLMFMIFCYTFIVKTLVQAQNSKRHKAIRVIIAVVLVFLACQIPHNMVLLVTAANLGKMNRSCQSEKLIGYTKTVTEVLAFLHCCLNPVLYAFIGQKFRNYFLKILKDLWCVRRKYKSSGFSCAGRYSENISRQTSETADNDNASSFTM
From the text: Cells overexpressing human CCR6 were used in the chemotaxis assay (DiscoverX, cAMP Hunter™ CHO-K1 CCR6 Gi Cell Line). Growth medium of these cells consisted of DMEM/F12, non-essential Amino acids (1×NEAA, Gibco 11140050), 10% FBS and 1× pen/strep (Gibco 15140). For the chemotaxis assay, Corning Transwell plates were used with a pore size of 8 m (Corning 351164). Cells were harvested using trypsin and diluted to 4*10^6 cells/ml in chemotaxis medium (DMEM, 0.25% BSA, pen/strep). Compounds were four-fold serially diluted in DMSO. Further dilutions were made in chemotaxis medium. Cells were incubated with test compounds for 30 min at 37° C. prior to initiation of the assay (2*10^6 cells/ml). Final DMSO concentration in the assay was 0.2%. Wells of the Transwell plates were filled with 200 μl chemotaxis medium containing 100 ng/ml CCL20 (R&D systems 360-MP). 50 μl of the cell/compound suspension was added to the inserts of the Transwell plates (100,000 cells/insert). The Transwell plates were placed in an incubator at 37° C., 5% CO2 for 4 h. After 4 h, the number of migrated cells was quantified using CellTiter Glo (Promega). Percentage inhibition values were calculated based on the low and high signal obtained with 0.2% DMSO in chemotaxis medium without and with CCL20, respectively. The relative Log IC50 was determined with GraphPad Prism 9 using a four-parameter dose-response model.

human CCR6 [2] = target: T1, human CCR6; assay: Human CCR6-CRE reporter assay; type: cell-based; parameters: The second construct contained the open reading frame of human CCR6 in the pUNO1 backbone; host or cells: 293FT cells (transient transfection with TransIT-293)
Description: 293FT cells were transfected with 2 constructs using TransIT-293 (Mirus). The first construct (pGL4.29, Promega) expressed the luciferase reporter gene luc2P in response to the binding of cAMP-induced CREB to the CREelement in its promoter. The second construct contained the open reading frame of human CCR6 in the pUNO1 backbone under the control of an enhanced CMV promoter(InVivoGen).48 h after transfection, cells were harvested and diluted to 750,000 cells/ml in culture medium (DMEM, 10% FBS, 1× pen/strep(Gibco 15140)). Compounds were 2.5-fold serially diluted in DMSO. Further dilutions were made in assay medium (DMEM, 10% FBS, 1× pen/strep, 6 μM Forskolin, 6 nM CCL20). 4 μl of the compound solution was added to a white MW384 plate, followed by […] of the cell suspension. Final DMSO concentration in the assay was 0.1%. The MW384 plate was placed in an incubator at 37° C., 5% CO2 for 5 h. Luciferase activity was determined by addition of 24 μl of a 2.5× diluted BriteLite luciferase solution(Perkin Elmer), followed by luminescence measurement using a VICTOR Plate reader (Perkin Elmer). […] The relative Log IC50 was determined with GraphPad Prism 9 using a four-parameter dose-response model.

[3] = 293FT cells transfected with human CCR6 and CRE-luciferase, Forskolin + CCL20, 5 h, relative Log IC50, read-out: CCR6-CRE reporter (converted)

An IC50 (human CCR6 [1]) of 20 nM and an IC50 (human CCR6 [2]; [3]) of 63.1 nM were found for `N#Cc1n[nH]c2ccc(-c3ccc(S(=O)(=O)N4CCC(Nc5ccc(OC(F)(F)F)cc5)CC4)cc3)cc12` [Example 14, 5-{4-[(4-{[4-(trifluoromethoxy)phenyl]Amino}piperidin-1-yl)sulfonyl]phenyl}-1H-indazole-3-carbonitrile] in this work.
An IC50 (human CCR6 [1]) of 10 nM was found for `N#Cc1c[nH]c2ccc(-c3ccc(S(=O)(=O)N4CCC(Nc5ccc(OC(F)(F)F)cn5)CC4)cc3)cc12` [Example 15, 5-{4-[(4-{[5-(trifluoromethoxy)pyridin-2-yl]Amino}piperidin-1-yl)sulfonyl]phenyl}-1H-indole-3-carbonitrile] in this work.
An IC50 (human CCR6 [1]) of 39.8 nM was found for `O=c1[nH]nc2ccc(-c3ccc(S(=O)(=O)N4CCC(Nc5ccc(OC(F)(F)F)cc5)CC4)cc3)cn12` [Example 23, 6-{4-[(4-{[4-(trifluoromethoxy)phenyl]Amino}piperidin-1-yl)sulfonyl]phenyl}-2H,3H-[1,2,4]triazolo[4,3-a]pyridin-3-one] in this work.
An IC50 (human CCR6 [1]) of 31.6 nM and an IC50 (human CCR6 [2]; [3]) of 79.4 nM were found for `O=c1[nH]nc2ccc(-c3ccc(S(=O)(=O)N4CCC(Nc5ccc(OC(F)(F)F)cn5)CC4)cc3)cn12` [Example 24, 6-{4-[(4-{[5-(trifluoromethoxy)pyridin-2-yl]Amino}piperidin-1-yl)sulfonyl]phenyl}-2H,3H-[1,2,4]triazolo[4,3-a]pyridin-3-one] in this work.
An IC50 (human CCR6 [1]) of 126 nM was found for `N#Cc1c[nH]c2ccc(-c3ccc(S(=O)(=O)N4CCC(Nc5ccc(OC(F)F)cc5)CC4)cc3)cc12` [Example 29, 5-{4-[(4-{[4-(difluoromethoxy)phenyl]Amino}piperidin-1-yl)sulfonyl]phenyl}-1H-indole-3-carbonitrile] in this work.
An IC50 (human CCR6 [1]) of 20 nM and an IC50 (human CCR6 [2]; [3]) of 100 nM were found for `Cc1cc(-c2ccc(S(=O)(=O)N3CCC(Nc4ccc(SC(F)(F)F)cc4)CC3)cc2)cn2c(C(C)C)cnc12` [Example 33, 1-{4-[8-methyl-3-(propan-2-yl)imidazo[1,2-a]pyridin-6-yl]benzenesulfonyl}-N-{4-[(trifluoromethyl)sulfanyl]phenyl}piperidin-4-amine] in this work.
An IC50 (human CCR6 [1]) of 63.1 nM and an IC50 (human CCR6 [2]; [3]) of 158 nM were found for `Cc1cnc2ccc(-c3ccc(S(=O)(=O)[C@H]4CC[C@H](Nc5ccc(OC(F)(F)F)cc5)CC4)cc3)cn12` [Example 41, N-[trans-4-(4-{3-methylimidazo[1,2-a]pyridin-6-yl}benzenesulfonyl)cyclohexyl]-4-(trifluoromethoxy)aniline] in this work.
An IC50 (human CCR6 [1]) of 79.4 nM and an IC50 (human CCR6 [2]; [3]) of 158 nM were found for `Cc1cnc2ccc(-c3ccc(S(=O)(=O)[C@H]4CC[C@H](Nc5ccc(OC(F)(F)F)cn5)CC4)cc3)cn12` [Example 42, N-[trans-4-(4-{3-methylimidazo[1,2-a]pyridin-6-yl}benzenesulfonyl)cyclohexyl]-5-(trifluoromethoxy)pyridin-2-amine] in this work.
An IC50 (human CCR6 [1]) of 79.4 nM and an IC50 (human CCR6 [2]; [3]) of 79.4 nM were found for `O=S(=O)(c1ccc(-c2ccc3nccn3c2)cc1)[C@H]1CC[C@H](Nc2ccc(OC(F)(F)F)cc2)CC1` [Example 43, N-[trans-4-(4-{imidazo[1,2-a]pyridin-6-yl}benzenesulfonyl)cyclohexyl]-4-(trifluoromethoxy)aniline] in this work.
An IC50 (human CCR6 [1]) of 6.31 nM and an IC50 (human CCR6 [2]; [3]) of 20 nM were found for `N#Cc1c[nH]c2ccc(-c3ccc(S(=O)(=O)[C@H]4CC[C@H](Nc5ccc(SC(F)(F)F)cc5)CC4)cc3)cc12` [Example 44, 5-(4-{[trans-4-({4-[(trifluoromethyl)sulfanyl]phenyl}Amino)cyclohexyl]sulfonyl}phenyl)-1H-indole-3-carbonitrile] in this work.
An IC50 (human CCR6 [1]) of 794 nM and an IC50 (human CCR6 [2]; [3]) of 63.1 nM were found for `O=S(=O)(c1ccc(-c2ccc3nccn3c2)cc1)[C@H]1CC[C@H](Nc2cccc(SC(F)(F)F)c2)CC1` [Example 46, N-[trans-4-(4-{imidazo[1,2-a]pyridin-6-yl}benzenesulfonyl)cyclohexyl]-3-[(trifluoromethyl)sulfanyl]aniline] in this work.
An IC50 (human CCR6 [2]; [3]) of 31.6 nM was found for `CC(C)c1nnc2ccc(-c3ccc(S(=O)(=O)N4CCC(Nc5ccc(OC(F)(F)F)cn5)CC4)cc3)cn12` [Example 56, N-(1-{4-[3-(propan-2-yl)-[1,2,4]triazolo[4,3-a]pyridin-6-yl]benzenesulfonyl}piperidin-4-yl)-5-(trifluoromethoxy)pyridin-2-amine] in this work.
An IC50 (human CCR6 [2]; scaffold variant X = O, R1 = CF3, read-out: Activity in human CCR6-CRE reporter assay) of 62 nM was found for `NC(=O)c1cc(-c2ccc(S(=O)(=O)N3CCC(Nc4ccc(OC(F)(F)F)cn4)CC3)cc2)ccn1` [Example 58, 4-{4-[(4-{[5-(trifluoromethoxy)pyridin-2-yl]amino}piperidin-1-yl)sulfonyl]phenyl}pyridine-2-carboxamide] in this work.
An IC50 (human CCR6 [2]; [3]) of 39.8 nM was found for `Cc1nnc2ccc(-c3ccc(S(=O)(=O)N4CCC(Nc5ccc(OC(F)(F)F)cn5)CC4)cc3)cn12` [Example 60, N-[1-(4-{3-methyl-[1,2,4]triazolo[4,3-a]pyridin-6-yl}benzenesulfonyl)piperidin-4-yl]-5-(trifluoromethoxy)pyridin-2-amine] in this work.
An IC50 (human CCR6 [2]; [3]) of 63.1 nM was found for `Cc1cc(-c2ccc(S(=O)(=O)N3CCC(Nc4ccc(SC(F)(F)F)cn4)CC3)cc2)cn2c(C(C)C)cnc12` [Example 61, N-(1-{4-[8-methyl-3-(propan-2-yl)imidazo[1,2-a]pyridin-6-yl]benzenesulfonyl}piperidin-4-yl)-5-[(trifluoromethyl)sulfanyl]pyridin-2-amine] in this work.
An IC50 (human CCR6 [2]; scaffold variant X = S, R1 = CF3, read-out: Activity in human CCR6-CRE reporter assay) of 50 nM was found for `O=S(=O)(c1ccc(-c2ccc3nccn3c2)cc1)N1CCC(Nc2ccc(SC(F)(F)F)cn2)CC1` [Example 62, N-[1-(4-{imidazo[1,2-a]pyridin-6-yl}benzenesulfonyl)piperidin-4-yl]-5-[(trifluoromethyl)sulfanyl]pyridin-2-amine] in this work.
An IC50 (human CCR6 [2]; [3]) of 39.8 nM was found for `CC(C)c1cnc2ccc(-c3ccc(S(=O)(=O)N4CCC(Nc5ccc(SC(F)(F)F)cn5)CC4)cc3)cn12` [Example 64, N-(1-{4-[3-(propan-2-yl)imidazo[1,2-a]pyridin-6-yl]benzenesulfonyl}piperidin-4-yl)-5-[(trifluoromethyl)sulfanyl]pyridin-2-amine] in this work.
An IC50 (human CCR6 [2]; [3]) of 1260 nM was found for `Cc1cc(-c2ccc(S(=O)(=O)N3CCC(Nc4cc(OC(F)(F)F)ccn4)CC3)cc2)cn2c(C(C)C)cnc12` [Example 69, N-(1-{4-[8-methyl-3-(propan-2-yl)imidazo[1,2-a]pyridin-6-yl]benzenesulfonyl}piperidin-4-yl)-4-(trifluoromethoxy)pyridin-2-amine] in this work.
An IC50 (human CCR6 [2]; [3]) of 3160 nM was found for `CC(C)c1nnc2ccc(-c3ccc(S(=O)(=O)N4CCC(Nc5cc(OC(F)(F)F)ccn5)CC4)cc3)cn12` [Example 70, N-(1-{4-[3-(propan-2-yl)-[1,2,4]triazolo[4,3-a]pyridin-6-yl]benzenesulfonyl}piperidin-4-yl)-4-(trifluoromethoxy)pyridin-2-amine] in this work.
An IC50 (human CCR6 [2]; [3]) of 1000 nM was found for `Cc1cc(-c2ccc(S(=O)(=O)N3CCC(Nc4cc(OC(F)(F)F)ccn4)CC3)cc2)cn2c(C(C)C)nnc12` [Example 71, N-(1-{4-[8-methyl-3-(propan-2-yl)-[1,2,4]triazolo[4,3-a]pyridin-6-yl]benzenesulfonyl}piperidin-4-yl)-4-(trifluoromethoxy)pyridin-2-amine] in this work.
An IC50 (human CCR6 [2]; [3]) of 126 nM was found for `O=S(=O)(c1ccc(-c2ccc3nccn3c2)cc1)[C@H]1CC[C@H](Nc2ccc(OC(F)(F)F)cn2)CC1` [Example 73, N-[trans-4-(4-{imidazo[1,2-a]pyridin-6-yl}benzenesulfonyl)cyclohexyl]-5-(trifluoromethoxy)pyridin-2-amine] in this work.
